Results from US8951752B2, “N-demethyase genes and uses thereof” (priority 2011, dated 2015).
Values joined by “and” are separate entries in the source; they are usually repeats but may differ in a detail not shown here. Equal values may be shown once. Read-outs that look alike come from different tables or passages of the source.

How the values were obtained:
NdmB-His6 = target: T1, NdmB-His6 (Pseudomonas putida, UniProt H9N290); assay: Methylxanthine N-demethylase assay and kinetics, NdmB-His6 with His6-NdmD; type: biochemical, Pseudomonas putida CBB5; details: for N-demethylase activity: NdmB; for Km: 30° C., pH 7.5, ∞ where no activity
T1 construct: made in house; host or cells: E. coli BL21(DE3)
T1 sequence (H9N290 1-355): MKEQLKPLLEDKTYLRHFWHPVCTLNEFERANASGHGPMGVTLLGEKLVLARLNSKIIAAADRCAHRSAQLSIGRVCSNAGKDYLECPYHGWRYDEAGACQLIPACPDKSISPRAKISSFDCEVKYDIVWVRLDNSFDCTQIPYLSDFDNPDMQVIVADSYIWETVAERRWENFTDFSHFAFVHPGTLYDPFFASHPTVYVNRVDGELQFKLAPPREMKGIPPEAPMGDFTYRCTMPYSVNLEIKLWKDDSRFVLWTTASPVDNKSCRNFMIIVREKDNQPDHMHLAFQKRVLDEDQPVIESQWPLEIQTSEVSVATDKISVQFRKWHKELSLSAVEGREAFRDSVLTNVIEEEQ
Protocol: (§1) Methylxanthine N-demethylase activity assay contained, in 1-ml total volume, 0.5 mM methylxanthine, 1 mM NADH, 50 μM Fe(NH4)2(SO4)2, and an appropriate amount of NdmA-His6 or NdmB-His6 (7.4 μg-2.5 mg protein depending on substrate specificity) in 50 mM KPi buffer (pH 7.5). Approximately 4 U of partially purified reductase, prepared as described previously (Summers et al., 2011) or 59 U of purified His6-NdmD was added to reaction mixture. Catalase from bovine liver (4,000 U) was also added to reactions containing His6-NdmD. The reaction mixture was incubated at 30° C. with 300 rpm shaking on an incubating microplate shaker (VWR, Radnor, Pa.). Periodically, a small aliquot was sampled from the reaction mixture and mixed with equal volume of acetonitrile for quantifying concentrations of methylxanthines and N-demethylated products by HPLC. One unit of N-demethylase activity was defined as the consumption of one […] methylxanthine per minute.
(§2) Apparent kinetic parameters of NdmA-His6 and NdmB-His6 were determined by measuring the initial rate of disappearance (vo) of methylxanthines in 50 mM KPi buffer (pH 7.5) at 30° C. The initial substrate concentrations (ESI) used in these experiments were from 25 to 500 μM. Substrates were incubated with His6-NdmD plus either NdmA-His6 or NdmB-His6 under standard conditions for 15 minutes. At 1, 5, 10, and 15 minutes, samples were removed from the reaction mixtures to quantitate substrate concentrations by HPLC. Plots of substrate concentrations against time were used to determine the initial rates of disappearance of substrates which were linear over 15 minutes. The apparent kinetic parameters were determined from Michaelis-Menten plots of vo against [S] fitted with the equation

[1] = target: T2, N-demethylase (Ndm: NdmA and NdmB subunits) (Pseudomonas putida, UniProt H9N289+H9N290); assay: Methylxanthine N-demethylase activity assay with purified Ndm plus partially purified Ccr; type: biochemical, Pseudomonas putida CBB5; details: for Products identified: same products at 500 and 200 μM substrate; for Relative N-demethylase activity: relative to paraxanthine; for O-demethylation by Ndm: prolonged incubation
T2 construct: lane 3, natural Ndm purified from P. putida CBB5; made in house; host or cells: purified from the natural strain Pseudomonas putida CBB5 (DEAE, Phenyl and Q Sepharose); not recombinant
T2 sequence (H9N289 1-351): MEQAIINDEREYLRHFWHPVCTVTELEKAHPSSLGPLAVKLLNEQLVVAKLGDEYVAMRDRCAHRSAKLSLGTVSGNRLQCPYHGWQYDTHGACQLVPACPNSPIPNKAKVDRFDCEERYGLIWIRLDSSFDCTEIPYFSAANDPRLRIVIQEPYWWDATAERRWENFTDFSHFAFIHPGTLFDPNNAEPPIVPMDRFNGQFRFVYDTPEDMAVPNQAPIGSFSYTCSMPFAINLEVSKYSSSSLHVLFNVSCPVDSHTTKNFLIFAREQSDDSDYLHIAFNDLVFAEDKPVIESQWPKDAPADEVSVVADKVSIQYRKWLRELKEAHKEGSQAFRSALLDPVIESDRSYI
T2 sequence (H9N290 1-355): T1 sequence (H9N290 1-355)
Protocol: Methylxanthine N-demethylase activity assay contained, in 1-mL total volume, 0.5 mM methylxanthine, 1 mM NADH, 50 μM Fe(NH4)2(SO4)2, and an appropriate amount of Ndm (0.08-7.5 mg protein, depending on purity of the protein) in 50 mM KPi buffer. Approximately 4 U of partially purified Ccr was added to reaction mixture when assaying Ndm in Phenyl Sepharose and Q Sepharose eluant-fractions (Ccr was not added to the enzyme reaction mixture when assaying Ndm activity in DEAE Sepharose eluant-fractions because Ccr co-eluted with Ndm). The reaction mixture was incubated at 30° C. with 300 rpm shaking on an incubating microplate shaker (VWR). Periodically, a small aliquot was sampled from the reaction mixture and mixed with equal volume of acetonitrile for quantifying concentrations of methylxanthines and N-demethylated products by HPLC. One unit of N-demethylase activity was defined as the consumption of one μmole methylxanthine per minute. When Ndm was coupled with the reductase and ferredoxin components of naphthalene dioxygenase of Pseudomonas sp. strain 9816 (Haigler & Gibson, 1990a; Haigler & Gibson, 1990b), 30 and 100 μg of the respective proteins were used. Spinach ferredoxin reductase and ferredoxin were also substituted for Ccr as described by Subramanian et al. (1979).
Determination of Kinetic Parameters. Apparent kinetic parameters of Ndm were determined by measuring the initial rate of disappearance (vo) of paraxanthine or 7-methylxanthine in 50 mM KPi buffer (pH 7.5) at 30° C. The paraxanthine and 7-methylxanthine concentrations ([S]) used in these experiments were from 20 to 500 μM. Substrates were incubated with Ndm and Ccr under standard conditions for 15 minutes. At 1, 5, 10, and 15 minutes, samples were removed from the reaction mixtures to quantitate substrate concentrations by HPLC. Plots of substrate concentrations against time were used to determine the initial rates of disappearance of substrates which were linear over 15 minutes. The apparent kinetic parameters were determined from Michaelis-Menten plots of Vo against [S] fitted with the equation
Determination of Oxygen Requirement. Oxygen consumption by Ndm during N-demethylation of paraxanthine was determined in a closed reaction vessel equipped with a Clarke-type oxygen electrode (Digitial Modell 0, Rank Brothers Ltd., Cambridge, England). The electrode was calibrated by using glucose oxidase (Sigma) and glucose for consumption of oxygen. Ndm activity assay was performed at 30° C. in a total volume of 1 ml of air-saturated 50 mM KPi buffer (pH 7.5) with 100 μM paraxanthine, 200 μM NADH, 50 μM Fe(NH4)2(SO4)2, 0.2 mg purified Ndm, and 4 U partially purified Ccr. The reaction was initiated by adding Ndm and partially purified Ccr after equilibration of all other reaction components for 3.3 minutes. After 13 minutes, a 100-μL aliquot was withdrawn from the reaction, immediately mixed with equal volume of acetonitrile to stop the enzyme reaction, and analyzed for N-demethylation product by HPLC. Background oxygen consumption, possibly due to NADH oxidase enzyme activity in the partially purified Ccr, was quantitated in control reactions containing all reaction components except paraxanthine.
Formaldehyde Determination. […] Twenty μL Nash reagent was added to 50 μl Ndm reaction sample plus 50 μl acetonitrile. This mixture was incubated at 51° C. for 12 minutes.

[2] = system: cell extracts prepared from P. putida CBB5; assay: NADH-dependent N-demethylase activity of CBB5 cell extracts; type: biochemical, Pseudomonas putida CBB5; details: 0.5 mM substrate, 7.2 mg mL^−1 protein
NdmA-His6 = target: T3, NdmA-His6 (Pseudomonas putida, UniProt H9N289); assay: Methylxanthine N-demethylase assay and kinetics, NdmA-His6 with His6-NdmD; type: biochemical, Pseudomonas putida CBB5
T3 construct: made in house; host or cells: E. coli BL21(DE3)
T3 sequence (H9N289 1-351): T2 sequence (H9N289 1-351)
Protocol: as §1, §2

[3] = target: T4, Caffeine dehydrogenase (Cdh) from CBB1 (Pseudomonas sp., UniProt D7REY3); details: cited from earlier work
T4 sequence (D7REY3 1-791): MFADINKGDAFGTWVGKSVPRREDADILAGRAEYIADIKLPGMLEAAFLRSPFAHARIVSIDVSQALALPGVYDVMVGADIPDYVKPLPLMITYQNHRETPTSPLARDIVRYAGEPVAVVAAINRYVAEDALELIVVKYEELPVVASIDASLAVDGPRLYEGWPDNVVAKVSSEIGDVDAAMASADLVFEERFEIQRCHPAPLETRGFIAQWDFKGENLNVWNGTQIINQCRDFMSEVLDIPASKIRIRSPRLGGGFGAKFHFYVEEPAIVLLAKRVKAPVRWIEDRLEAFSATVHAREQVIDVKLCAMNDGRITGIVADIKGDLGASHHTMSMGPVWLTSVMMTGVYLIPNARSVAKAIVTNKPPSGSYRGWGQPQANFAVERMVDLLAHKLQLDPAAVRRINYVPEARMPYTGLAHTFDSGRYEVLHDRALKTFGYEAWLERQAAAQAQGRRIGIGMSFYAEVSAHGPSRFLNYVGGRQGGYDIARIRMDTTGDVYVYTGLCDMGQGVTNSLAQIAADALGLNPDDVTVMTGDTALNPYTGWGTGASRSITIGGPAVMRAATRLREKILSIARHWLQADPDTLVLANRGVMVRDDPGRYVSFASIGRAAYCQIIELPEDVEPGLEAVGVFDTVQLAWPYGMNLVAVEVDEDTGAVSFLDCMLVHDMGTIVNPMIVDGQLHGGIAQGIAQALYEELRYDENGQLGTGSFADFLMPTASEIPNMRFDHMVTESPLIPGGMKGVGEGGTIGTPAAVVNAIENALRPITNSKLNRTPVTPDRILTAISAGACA
T4 sequence (D7REY4 1-295 partner): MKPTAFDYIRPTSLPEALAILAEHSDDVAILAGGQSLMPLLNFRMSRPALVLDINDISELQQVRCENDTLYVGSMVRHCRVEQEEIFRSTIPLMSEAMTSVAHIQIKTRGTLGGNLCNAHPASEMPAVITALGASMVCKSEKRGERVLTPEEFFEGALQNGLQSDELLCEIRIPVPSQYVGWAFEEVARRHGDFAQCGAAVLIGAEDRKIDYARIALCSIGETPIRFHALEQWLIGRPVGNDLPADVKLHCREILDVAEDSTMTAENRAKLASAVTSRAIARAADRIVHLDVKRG
T4 sequence (D7REY5 1-167 partner): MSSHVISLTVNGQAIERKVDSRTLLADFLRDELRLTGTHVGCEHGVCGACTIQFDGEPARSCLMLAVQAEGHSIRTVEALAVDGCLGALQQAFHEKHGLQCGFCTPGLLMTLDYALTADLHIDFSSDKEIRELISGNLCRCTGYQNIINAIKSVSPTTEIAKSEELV

[4] = 100 μM paraxanthine, 0.2 mg Ndm, 4 U Ccr, after 13 minutes

Cn1c(=O)[nH]c2ncn(C)c2c1=O [Paraxanthine, 1,7-dimethylxanthine]
N-demethylase activity (NdmB-His6): no activity
Km (NdmB-His6; NdmB-His6): ∞
N-demethylation by NdmC fraction (NdmC): not N-demethylated
oxygen consumed during N-demethylation [1, 4]: 79.5 µM
paraxanthine N-demethylated [1, 4]: 60.2 µM
Products identified [1]: xanthine and 7-methylxanthine,
Relative N-demethylase activity ([1]; substrate conc. 200 μM): 100.0 ± 3.7
Relative N-demethylase activity ([1]; substrate conc. 500 μM): 100.0 ± 3.1
time to complete utilization ([2]; 0.5 mM NADH): about 20 minutes

COc1cc(C=O)ccc1O [vanillin]
O-demethylation by Ndm [1]: did not catalyze O-demethylation

COc1cc(C(=O)O)ccc1O [vanillate]
O-demethylation by Ndm [1]: did not catalyze O-demethylation

Cn1c(=O)[nH]c2nc[nH]c2c1=O [1-methylxanthine]
catalytic efficiency relative to theophylline (NdmA-His6; NdmA): two orders of magnitude lower
Product (NdmA-His6; NdmA-His6): Xanthine
N-demethylase activity (NdmB-His6): no activity
Km (NdmB-His6; NdmB-His6): ∞

Cn1c(=O)c2[nH]cnc2n(C)c1=O [Theophylline, 1,3-dimethylxanthine]
Products identified [1]: 1- & 3-methylxanthine, and xanthine
Relative N-demethylase activity ([1]; substrate conc. 200 μM): 14.2 ± 1.6
Relative N-demethylase activity ([1]; substrate conc. 500 μM): 17.6 ± 1.0
degradation rate compared with paraxanthine [2]: significantly slower
activity of Cdh [3]: no activity
activity of Cdh ([3]; substrate specificity study): 5%

O=c1[nH]c(=O)c2[nH]cnc2[nH]1 [xanthine]
product formed from paraxanthine ([1]; 7.4 mU / 7.4 units of Ndm, 90 minutes): 193.7 ± 4.0 µM and 193.7 ± 14.0 µM
N-demethylation product present ([1]; from paraxanthine, after 13 minutes): ~20.3 µM
activity of Cdh [3]: no activity and none

Cn1c(=O)[nH]c(=O)c2[nH]cnc21 [3-Methylxanthine, 3-methylxanthine]
N-demethylase activity (NdmA-His6; NdmA): inactive
Km (NdmA-His6; NdmA-His6, 30° C., pH 7.5, ∞ where no activity): ∞
Product (NdmB-His6; NdmB-His6): Xanthine
Products identified [1]: xanthine
Relative N-demethylase activity ([1]; substrate conc. 200 μM): 68.9 ± 2.6
Relative N-demethylase activity ([1]; substrate conc. 500 μM): 55.2 ± 6.0
